Eleven compounds from patent US20070179154A1, “Coumarin derivatives, process for their production and use thereof” (Takeda Pharmaceutical Company Limited, priority 2002, published 2007) can be followed below.

Each structure is given as a SMILES string.

On to `O=C(O)CCc1cccc(-c2c(CC(=O)Nc3ccc(F)cc3C(F)(F)F)c(=O)oc3cc(Cl)c(F)cc23)c1` [Example 22, 3-[3-[7-chloro-6-fluoro-3-[2-[[4-fluoro-2-(trifluoromethyl)phenyl]amino]-2-oxoethyl]-2-oxo-2H-chromen-4-yl]phenyl]propionic acid], for which the melting point – broadly, the temperature of the solid-liquid transition – lay within 198 to 200 °C. `O=C(O)CCc1cccc(-c2c(CC(=O)Nc3ccc(F)cc3C(F)(F)F)c(=O)oc3cc(Cl)ccc23)c1` [Example 23, 3-[3-[7-chloro-3-[2-[[4-fluoro-2-(trifluoromethyl)phenyl]amino]-2-oxoethyl]-2-oxo-2H-chromen-4-yl]phenyl]propionic acid] gave a melting point of 211 to 212 °C. `O=C(O)CCc1cccc(-c2c(CC(=O)Nc3ccc(F)cc3C(F)(F)F)c(=O)oc3ccccc23)c1` [Example 24, 3-[3-[3-[2-[[4-fluoro-2-(trifluoromethyl)phenyl]amino]-2-oxoethyl]-2-oxo-2H-chromen-4-yl]phenyl]propionic acid] came in with a melting point of 230 to 232 °C.

Turning to `Cc1cc2c(-c3cccc(/C=C/c4nnn[nH]4)c3)c(CC(=O)Nc3ccc(F)cc3C(F)(F)F)c(=O)oc2cc1Cl` [Example 41, 2-(7-chloro-6-methyl-2-oxo-4-{3-[(E)-2-(1H-tetrazol-5-yl)ethenyl]phenyl}-2H-chromen-3-yl)-N-[4-fluoro-2-(trifluoromethyl)phenyl]acetamide], the melting point lay in the range of 216 to 218 °C. On to `COC(=O)c1ccc(-c2c(CC(=O)Nc3ccc(F)cc3C(F)(F)F)c(=O)oc3cc(Cl)c(C)cc23)cc1` [Example 45, Methyl 4-(7-chloro-3-{2-[4-fluoro-2-(trifluoromethyl)anilino]-2-oxoethyl}-6-methyl-2-oxo-2H-chromen-4-yl)benzoate], for which the melting point is 202 to 204 °C. Regarding `CCOC(=O)/C=C/C=C/c1cccc(-c2c(CC(=O)Nc3ccc(F)cc3C(F)(F)F)c(=O)oc3cc(Cl)c(C)cc23)c1` [Example 51, Ethyl (2E,4E)-5-[3-(7-chloro-3-{2-[4-fluoro-2-(trifluoromethyl)anilino]-2-oxoethyl}-6-methyl-2-oxo-2H-chromen-4-yl)phenyl]-2,4-pentadienoate], the melting point was in the range of 216 to 218 °C. In the case of `CCOC(=O)CNCc1cccc(-c2c(CC(=O)Nc3ccc(F)cc3C(F)(F)F)c(=O)oc3cc(Cl)c(C)cc23)c1` [Example 62, Ethyl ({3-[7-chloro-3-(2-{[4-fluoro-2-(trifluoromethyl)phenyl]amino}-2-oxoethyl)-6-methyl-2-oxo-2H-chromen-4-yl]benzyl}amino)acetate], the melting point was 153 to 155 °C. `CCOC(=O)CSCc1cccc(-c2c(CC(=O)Nc3ccc(F)cc3C(F)(F)F)c(=O)oc3cc(Cl)c(C)cc23)c1` [Example 63, Ethyl ({3-[7-chloro-3-(2-{[4-fluoro-2-(trifluoromethyl)phenyl]amino}-2-oxoethyl)-6-methyl-2-oxo-2H-chromen-4-yl]benzyl}thio)acetate] registered a melting point of 106 to 108 °C. The figure for `CCOC(=O)CS(=O)(=O)Cc1cccc(-c2c(CC(=O)Nc3ccc(F)cc3C(F)(F)F)c(=O)oc3cc(Cl)c(C)cc23)c1` [Example 64, Ethyl ({3-[7-chloro-3-(2-{[4-fluoro-2-(trifluoromethyl)phenyl]amino}-2-oxoethyl)-6-methyl-2-oxo-2H-chromen-4-yl]benzyl}sulfonyl)acetate] is 230 to 231 °C.

Take `Cc1cc2c(-c3cccc(CCc4nnn[nH]4)c3)c(CC(=O)Nc3ccc(F)cc3C(F)(F)F)c(=O)oc2cc1Cl` [Example 98]: the melting point was in the range of 244 to 246 °C. For `Cc1cc2c(-c3cccc(-c4noc(=O)[nH]4)c3)c(CC(=O)Nc3ccc(F)cc3C(F)(F)F)c(=O)oc2cc1Cl` [Example 99, 2-{7-chloro-6-methyl-2-oxo-4-[3-(5-oxo-4,5-dihydro-1,2,4-oxadiazol-3-yl)phenyl]-2H-chromen-3-yl}-N-[4-fluoro-2-(trifluoromethyl)phenyl]acetamide], the melting point was 285 to 287 °C.
